Converted amounts (≈) assume the structure as drawn.
What was measured:
Type in all cases: physicochemical
[1] = oxidation-reduction cycle durability test (cyclic voltammetry); settings: dichloromethane; for change in oxidation peak current after 20,000 oxidation-reduction cycles (in words): 20,000 cycles; for Rate of Change in Oxidation Peak Current after Oxidation-Reduction Cycles for 20,000 Times: tetrabutylammonium perchlorate 0.1 mol/L, compound 1.0×10^−4 mol/L, initial current = 100%
Method: (§1) For the durability measurement, glassy carbon was used for a working electrode, platinum was used for a counter electrode, silver was used for a reference electrode, and a dichloromethane solution was used in which tetrabutylammonium perchlorate (0.1 mol/L) as a supporting electrolyte and each of the above compounds (1.0×10^−4 mol/L) were dissolved.
In this solution, a square-wave potential program including constant potential oxidation at +0.8 V (B-2 and B-1) or +1.2 V (XX-4) (vs. Ag/Ag^+), each of which was equal to or more than the oxidation potential of the corresponding compound, for 3 seconds and subsequent constant potential reduction at 0 V (vs. Ag/Ag^+) for 3 seconds was repeatedly performed 20,000 times.
The changes in oxidation peak current in cyclic voltammetry (CV) measurement before and after the oxidation-reduction cycles for 20,000 times are shown in Table.
In this table, the “rate of change in oxidation peak current” indicates a value obtained by adding the change in current from the initial current (represented by 100%) to the initial current.

[2] = ultraviolet-visible absorption spectrum in the neutral state, chloroform solution
Method: The exemplary compound B-2 thus obtained was dissolved in chloroform, and the absorption spectrum of this solution measured by using an ultraviolet-visible spectrophotometer (V-560 manufactured by JASCO Corporation) is shown in FIG. 2.

[3] = oxidation absorption spectrum / change in transmittance on constant potential oxidation; settings: for shape and wavelength of the oxidation absorption peak with concentration (π-dimer formation): 5.0×10^−4 or 1.7×10^−4 mol/L; for transmittance after oxidation / light absorption peak in the oxidized state: constant potential oxidation at +0.9 V (vs. Ag/Ag+); for transmittance after oxidation: at the absorption peak
Method: as §1, with “the measurement of an oxidation absorption spectrum, platinum” for “the durability measurement, glassy carbon”, “(0.1 mol/l)” for “(0.1 mol/L)”, “compounds (5.0×10^−4 or 1.7×10^−4” for “compounds (1.0×10^−4”
In this solution, constant potential oxidation at +0.9 V (vs. Ag/Ag+), which was equal to or more than the oxidation potential of the compound, was performed, and the change in transmittance was measured.
The measurement of the oxidation absorption spectrum of the obtained compound D-11 was performed as in Example 4 using a dichloromethane solution in which tetrabutylammonium perchlorate (0.1 mol/L) and D-11 (5.0×10^−4 mol/L) were dissolved. […] This oxidation colored state was again returned to a colorless and transparent state by reduction, and the electrochromic characteristics in conformity with oxidation-reduction were confirmed. In addition, since the shape and the absorption wavelength of this oxidation absorption peak were not changed with the concentration, it was shown that as in Example 4, the formation of π-dimers was suppressed.

[4] = solubility in propylene carbonate solution of supporting electrolyte; settings: propylene carbonate solution of LiCO4 (0.1 mol/L), organic solvent or mixture
Method: In addition, as one example of the element solvent, the solubility of the compound D-11 in a propylene carbonate solution of LiCO4 (supporting electrolyte, 0.1 mol/L) was confirmed. According to the result, it was confirmed that this compound was dissolved at a concentration of 9 mmol/L and that the solubility thereof was higher than the solubility (6 mmol/L) of the compound B-2 of Example 1. The reason for this is believed that since having an ester group-containing phenyl group at the 3-position of DTT, the compound D-11 has an improved solubility into propylene carbonate, which is a polar solvent.

Structure (SMILES) | change in oxidation peak current after 20,000 oxidation-reduction cycles (in words) [1] | Rate of Change in Oxidation Peak Current after Oxidation-Reduction Cycles for 20,000 Times [1] [%] | absorption in the visible light region [2] | λ max at which the absorption peak showed the maximum intensity [2] [nm] | shape and wavelength of the oxidation absorption peak with concentration (π-dimer formation) [3] | transmittance after oxidation [3] [%] | light absorption peak in the oxidized state ([3]; dichloromethane) | transmittance in the bleached state before oxidation ([3]; over the entire visible light region, dichloromethane) | solubility [4] [mM]
CC(C)(C)c1cc2sc3cc(C(C)(C)C)sc3c2s1 [XX-4, reference compound] | decreased | 81 | – | – | – | – | – | – | –
COc1cccc(OC)c1-c1sc2c(sc3c(-c4ccccc4)c(-c4c(OC)cccc4OC)sc32)c1-c1ccccc1 [B-1] | hardly observed | 98 | no absorption over the entire visible light region | 309.5 | not changed | 20.3 | approximately 510 nm | approximately 100% | –
COC(=O)c1ccc(-c2c(-c3c(OC)cccc3OC(C)C)sc3c2sc2c(-c4ccc(C(=O)OC)cc4)c(-c4c(OC)cccc4OC(C)C)sc23)cc1 [D-11] | – | – | no absorption over the entire visible light region | 316.0 | not changed | 36.3 | 541.5 nm | – | 9 (≈ 7140 µg/mL)
COc1cccc(OC(C)C)c1-c1sc2c(sc3c(-c4ccccc4)c(-c4c(OC)cccc4OC(C)C)sc32)c1-c1ccccc1 [B-2] | hardly observed | 101 | no absorption over the entire visible light region | 307.5 | not changed | – | – | – | 6 (≈ 4060 µg/mL)

— patent US8754241B2, “Organic compound and electrochromic element having the same” (Canon Kabushiki Kaisha, priority 2012, dated 2014)
